# Test system: MV-4-11 cells
# Test: Gene expression microarray analysis (Affymetrix PrimeView) and GSEA
# Assay type: cell-based, human
# Set-up: RFU PODN (11730768_x_at) / Fold change /veh PODN (11730768_x_at) / RFU LINC00158 (11744669_a_at) / Fold change /veh LINC00158 (11744669_a_at) / RFU DUSP10 (11751237_a_at) / Fold change /veh DUSP10 (11751237_a_at) / RFU ID3 (11757404_x_at) / Fold change /veh ID3 (11757404_x_at) / RFU PLEKHG5 (11737974_s_at) / Fold change /veh PLEKHG5 (11737974_s_at) / RFU LRRC4B (11730491_at) / Fold change /veh LRRC4B (11730491_at) / RFU GIMAP4 (11747438_a_at) / Fold change /veh GIMAP4 (11747438_a_at) / RFU KRT8 (11758183_x_at) / Fold change /veh KRT8 (11758183_x_at) / RFU CNN1 (11734310_a_at) / Fold change /veh CNN1 (11734310_a_at) / RFU VPS37D (11726825_at) / Fold change /veh VPS37D (11726825_at) / RFU C10orf10 (11716522_x_at) / Fold change /veh C10orf10 (11716522_x_at) / RFU KIR2DL2 /// KIR2DL4 /// KIR2DL5A /// KIR2DL5B /// KIR2DS1 /// KIR2DS2 /// KIR2DS3 /// KIR2DS4 /// KIR3DL3 /// KIR3DL3 /// KIR3DS1 (11738374_at) / Fold change /veh KIR2DL2 /// KIR2DL4 /// KIR2DL5A /// KIR2DL5B /// KIR2DS1 /// KIR2DS2 /// KIR2DS3 /// KIR2DS4 /// KIR3DL3 /// KIR3DL3 /// KIR3DS1 (11738374_at) / RFU C1QL1 (11718748_at) / Fold change /veh C1QL1 (11718748_at) / RFU TMPRSS4 (11747572_a_at) / Fold change /veh TMPRSS4 (11747572_a_at) / RFU HAMP (11756126_x_at) / Fold change /veh HAMP (11756126_x_at) / RFU RNFT2 (11725882_a_at) / Fold change /veh RNFT2 (11725882_a_at) / RFU NR4A2 (11747474_a_at) / Fold change /veh NR4A2 (11747474_a_at) / RFU ABCC12 (11746883_a_at) / Fold change /veh ABCC12 (11746883_a_at) / RFU TMEM136 (11760407_x_at) / Fold change /veh TMEM136 (11760407_x_at) / RFU CLDN22 /// WWC2 (11732394_at) / Fold change /veh CLDN22 /// WWC2 (11732394_at) / RFU HLA-DPB1 (11760878_x_at) / Fold change /veh HLA-DPB1 (11760878_x_at) / RFU SPINT1 (11716480_a_at) / Fold change /veh SPINT1 (11716480_a_at) / RFU GAP43 (11754022_s_at) / Fold change /veh GAP43 (11754022_s_at) / RFU A4GNT (11735810_at) / Fold change /veh A4GNT (11735810_at) / RFU PRB3 (11715151_x_at) / Fold change /veh PRB3 (11715151_x_at) / RFU TUBB4B (11761932_at) / Fold change /veh TUBB4B (11761932_at) / RFU CAPN14 (11732068_a_at) / Fold change /veh CAPN14 (11732068_a_at) / RFU TMCC2 (11721928_a_at) / Fold change /veh TMCC2 (11721928_a_at) / RFU IRGQ (11745062_a_at) / Fold change /veh IRGQ (11745062_a_at) / RFU FAM174B (11720279_a_at) / Fold change /veh FAM174B (11720279_a_at) / RFU TMPRSS4 (11748680_a_at) / Fold change /veh TMPRSS4 (11748680_a_at) / RFU FAM212B (11763350_a_at) / Fold change /veh FAM212B (11763350_a_at) / RFU PLEKHG5 (11743358_a_at) / Fold change /veh PLEKHG5 (11743358_a_at) / RFU ZSCAN30 (11745921_a_at) / Fold change /veh ZSCAN30 (11745921_a_at) / RFU CMKLR1 (11741424_a_at) / Fold change /veh CMKLR1 (11741424_a_at) / RFU LOC101060620 /// MAPK8IP1 (11723275_at) / Fold change /veh LOC101060620 /// MAPK8IP1 (11723275_at) / RFU SPTSSB (11747773_x_at) / Fold change /veh SPTSSB (11747773_x_at) / RFU PRSS12 (11739890_at) / Fold change /veh PRSS12 (11739890_at) / RFU BIN1 (11741810_x_at) / Fold change /veh BIN1 (11741810_x_at) / RFU WNT11 (11732464_a_at) / Fold change /veh WNT11 (11732464_a_at) / RFU C10orf10 (11716521_a_at) / Fold change /veh C10orf10 (11716521_a_at) / RFU C5orf56 (11738089_at) / Fold change /veh C5orf56 (11738089_at) / RFU CYB561 (11721691_x_at) / Fold change /veh CYB561 (11721691_x_at) / RFU ANKRD19P (11752326_a_at) / Fold change /veh ANKRD19P (11752326_a_at) / RFU OR2T12 /// OR2T33 /// OR2T8 (11738714_s_at) / Fold change /veh OR2T12 /// OR2T33 /// OR2T8 (11738714_s_at) / RFU VCAN (11748164_a_at) / Fold change /veh VCAN (11748164_a_at) / RFU JSRP1 (11732532_at) / Fold change /veh JSRP1 (11732532_at) / RFU KRTAP10-11 (11738290_x_at) / Fold change /veh KRTAP10-11 (11738290_x_at) / RFU MYO3A (11730013_a_at) / Fold change /veh MYO3A (11730013_a_at) / RFU EBF3 (11725865_a_at) / Fold change /veh EBF3 (11725865_a_at) / RFU CAMK2N1 (11719241_x_at) / Fold change /veh CAMK2N1 (11719241_x_at) / RFU C5orf56 (11738088_a_at) / Fold change /veh C5orf56 (11738088_a_at) / RFU OLFML3 (11715873_a_at) / Fold change /veh OLFML3 (11715873_a_at) / RFU LOC100653217 /// NTM (11731650_a_at) / Fold change /veh LOC100653217 /// NTM (11731650_a_at) / RFU MAPK11 (11762145_a_at) / Fold change /veh MAPK11 (11762145_a_at) / RFU FIZ1 (11724087_x_at) / Fold change /veh FIZ1 (11724087_x_at) / RFU OASL (11726364_x_at) / Fold change /veh OASL (11726364_x_at) / RFU SOX15 (11748057_x_at) / Fold change /veh SOX15 (11748057_x_at) / RFU CD79A (11719716_a_at) / Fold change /veh CD79A (11719716_a_at) / RFU HIST1H1D (11736915_at) / Fold change /veh HIST1H1D (11736915_at) / RFU CASKIN2 (11723855_a_at) / Fold change /veh CASKIN2 (11723855_a_at) / RFU LOC730098 (11760151_x_at) / Fold change /veh LOC730098 (11760151_x_at) / RFU OR4N2 (11742367_at) / Fold change /veh OR4N2 (11742367_at) / RFU PRRT2 (11749266_a_at) / Fold change /veh PRRT2 (11749266_a_at) / RFU SNX32 (11753110_a_at) / Fold change /veh SNX32 (11753110_a_at) / RFU CDHR5 (11726645_a_at) / Fold change /veh CDHR5 (11726645_a_at) / RFU RCAN1 (11760418_a_at) / Fold change /veh RCAN1 (11760418_a_at) / RFU FAM167A (11723789_a_at) / Fold change /veh FAM167A (11723789_a_at) / RFU FAM26E (11764081_at) / Fold change /veh FAM26E (11764081_at) / RFU ISYNA1 (11749810_s_at) / Fold change /veh ISYNA1 (11749810_s_at) / RFU ACY1 (11761880_at) / Fold change /veh ACY1 (11761880_at) / RFU 11764098_at / Fold change /veh 11764098_at / RFU SAMD14 (11745864_x_at) / Fold change /veh SAMD14 (11745864_x_at) / RFU NPB (11741838_a_at) / Fold change /veh NPB (11741838_a_at) / RFU TMPRSS6 (11731388_a_at) / Fold change /veh TMPRSS6 (11731388_a_at) / RFU KRTAP10-2 (11738614_at) / Fold change /veh KRTAP10-2 (11738614_at) / RFU ARHGAP8 /// PRR5-ARHGAP8 (11727945_x_at) / Fold change /veh ARHGAP8 /// PRR5-ARHGAP8 (11727945_x_at) / RFU KRTAP5-7 /// NADSYN1 (11734609_at) / Fold change /veh KRTAP5-7 /// NADSYN1 (11734609_at) / RFU RASL12 (11751679_a_at) / Fold change /veh RASL12 (11751679_a_at) / RFU CDKN2B (11736163_a_at) / Fold change /veh CDKN2B (11736163_a_at) / RFU PRF1 (11729649_at) / Fold change /veh PRF1 (11729649_at) / RFU, ZNF638 /// ZNF638-IT1 / Fold change vs veh, ZNF638 /// ZNF638-IT1 / RFU, PANK3 / Fold change vs veh, PANK3 / RFU, SH3YL1 / Fold change vs veh, SH3YL1 / RFU, ZEB2 / Fold change vs veh, ZEB2 / RFU, NRIP1 / Fold change vs veh, NRIP1 / RFU, PTTG1IP / Fold change vs veh, PTTG1IP / RFU, CAPN2 / Fold change vs veh, CAPN2 / RFU, MED14 / Fold change vs veh, MED14 / RFU, SNORA58 / Fold change vs veh, SNORA58 / RFU, C1orf63 / Fold change vs veh, C1orf63 / RFU, LRRFIP1 / Fold change vs veh, LRRFIP1 / RFU, NDUFAF7 / Fold change vs veh, NDUFAF7 / RFU, SLC12A2 / Fold change vs veh, SLC12A2 / RFU, IBTK / Fold change vs veh, IBTK / RFU, ESF1 / Fold change vs veh, ESF1 / Fold change vs veh, TMEM50B / RFU, TAOK1 / Fold change vs veh, TAOK1 / RFU, ACBD3 / Fold change vs veh, ACBD3 / RFU, TMA16 / Fold change vs veh, TMA16 / RFU, RWDD3 / Fold change vs veh, RWDD3 / RFU, BCAT1 / Fold change vs veh, BCAT1 / RFU, EDEM3 / Fold change vs veh, EDEM3 / RFU, TMEM33 / Fold change vs veh, TMEM33 / RFU, WDR75 / Fold change vs veh, WDR75 / RFU, AHCTF1 / Fold change vs veh, AHCTF1 / RFU, TFRC / Fold change vs veh, TFRC / RFU, ZDHHC17 / Fold change vs veh, ZDHHC17 / RFU, NOM1 / Fold change vs veh, NOM1 / RFU, ARL8B / Fold change vs veh, ARL8B / RFU, ZBTB11 / Fold change vs veh, ZBTB11 / RFU, TAMM41 / Fold change vs veh, TAMM41 / RFU, KIAA1704 /// LOC100996395 / Fold change vs veh, KIAA1704 /// LOC100996395 / RFU, ING1 / Fold change vs veh, ING1 / RFU, TRMT61B / Fold change vs veh, TRMT61B / RFU, FUBP3 / Fold change vs veh, FUBP3 / RFU, TP53 / Fold change vs veh, TP53 / RFU, TNKS2 / Fold change vs veh, TNKS2 / RFU, ZFP14 / Fold change vs veh, ZFP14 / RFU, ACTR2 / Fold change vs veh, ACTR2 / RFU, PPP3R1 / Fold change vs veh, PPP3R1 / RFU, PIK3R1 / Fold change vs veh, PIK3R1 / RFU, HNRNPA1 / Fold change vs veh, HNRNPA1 / RFU, RNF170 / Fold change vs veh, RNF170 / RFU, ZNF28 / Fold change vs veh, ZNF28 / RFU, RNGTT / Fold change vs veh, RNGTT / RFU, OGT / Fold change vs veh, OGT / RFU, BRD1 / Fold change vs veh, BRD1 / RFU, MARS / Fold change vs veh, MARS / RFU, ZNF655 / Fold change vs veh, ZNF655 / RFU, FAHD1 / Fold change vs veh, FAHD1 / RFU, BDP1 / Fold change vs veh, BDP1 / RFU, LRRCC1 / Fold change vs veh, LRRCC1 / RFU, ARID1A / Fold change vs veh, ARID1A / RFU, ZNF146 / Fold change vs veh, ZNF146 / RFU, ZNF330 / Fold change vs veh, ZNF330 / RFU, GPN3 / Fold change vs veh, GPN3 / RFU, C9orf123 / Fold change vs veh, C9orf123 / RFU, N4BP2L2 / Fold change vs veh, N4BP2L2 / RFU, ARFIP1 / Fold change vs veh, ARFIP1 / RFU, FAM179B / Fold change vs veh, FAM179B / RFU, BCL10 / Fold change vs veh, BCL10 / RFU, UHRF1BP1L / Fold change vs veh, UHRF1BP1L / RFU, BET1 / Fold change vs veh, BET1 / RFU, CNOT2 / Fold change vs veh, CNOT2 / RFU, ZNF268 / Fold change vs veh, ZNF268 / Fold change vs veh, ZNF507 / RFU, DGCR2 / Fold change vs veh, DGCR2 / RFU, WDSUB1 / Fold change vs veh, WDSUB1 / Fold change vs veh, HSP90B1 /// MIR3652 / RFU, ADSS / Fold change vs veh, ADSS / RFU, GK / Fold change vs veh, GK / RFU, ZNF148 / Fold change vs veh, ZNF148 / RFU, TAF9 / Fold change vs veh, TAF9 / RFU, SLC1A5 / Fold change vs veh, SLC1A5 / RFU, SLMO2 / Fold change vs veh, SLMO2 / RFU, ABCC4 / Fold change vs veh, ABCC4 / RFU, LOC101060439 /// RAP1B / Fold change vs veh, LOC101060439 /// RAP1B / RFU, RFX7 / Fold change vs veh, RFX7 / RFU, GTPBP10 / Fold change vs veh, GTPBP10 / RFU, CNEP1R1 / Fold change vs veh, CNEP1R1 / RFU, BIVM-ERCC5 /// ERCC5 / Fold change vs veh, BIVM-ERCC5 /// ERCC5 / RFU, ILF3 / Fold change vs veh, ILF3 / RFU 11762660_at / Fold change /veh 11762660_at / RFU VCAN (11757783_s_at) / Fold change /veh VCAN (11757783_s_at) / RFU DDX43 (11728927_at) / Fold change /veh DDX43 (11728927_at) / RFU KRT8 (11758188_x_at) / Fold change /veh KRT8 (11758188_x_at) / RFU NKD1 (11759106_at) / Fold change /veh NKD1 (11759106_at) / RFU SRD5A1 (11742802_a_at) / Fold change /veh SRD5A1 (11742802_a_at) / RFU TPSAB1 /// TPSB2 (11721975_s_at) / Fold change /veh TPSAB1 /// TPSB2 (11721975_s_at) / RFU GSTM3 (11746129_a_at) / Fold change /veh GSTM3 (11746129_a_at) / RFU IL23R (11737362_x_at) / Fold change /veh IL23R (11737362_x_at) / RFU TMEM51 (11727254_a_at) / Fold change /veh TMEM51 (11727254_a_at) / RFU PIWIL2 (11732686_x_at) / Fold change /veh PIWIL2 (11732686_x_at) / RFU ORM1 (11744905_x_at) / Fold change /veh ORM1 (11744905_x_at) / RFU CCDC152 (11743942_at) / Fold change /veh CCDC152 (11743942_at) / RFU ECM1 (11717891_a_at) / Fold change /veh ECM1 (11717891_a_at) / RFU IL23R (11748794_a_at) / Fold change /veh IL23R (11748794_a_at) / RFU TNFAIP8L3 (11732012_x_at) / Fold change /veh TNFAIP8L3 (11732012_x_at) / RFU MBOAT4 (11741988_at) / Fold change /veh MBOAT4 (11741988_at) / RFU 11764193_at / Fold change /veh 11764193_at / RFU TMEM53 (11763286_at) / Fold change /veh TMEM53 (11763286_at) / RFU MAGEB2 (11727129_at) / Fold change /veh MAGEB2 (11727129_at) / RFU TMEM200A (11744735_a_at) / Fold change /veh TMEM200A (11744735_a_at) / RFU CCDC152 (11751479_a_at) / Fold change /veh CCDC152 (11751479_a_at) / RFU FAM211A (11726209_a_at) / Fold change /veh FAM211A (11726209_a_at) / RFU RGS16 (11746705_a_at) / Fold change /veh RGS16 (11746705_a_at) / RFU VCAN (11755009_s_at) / Fold change /veh VCAN (11755009_s_at) / RFU RHOB (11743442_s_at) / Fold change /veh RHOB (11743442_s_at) / RFU RGS16 (11720943_a_at) / Fold change /veh RGS16 (11720943_a_at) / RFU RGS16 (11720944_at) / Fold change /veh RGS16 (11720944_at) / RFU, VPS4B / Fold change vs veh, VPS4B / RFU, CREB1 / Fold change vs veh, CREB1 / RFU, DNAJC13 / Fold change vs veh, DNAJC13 / RFU, GNAQ / Fold change vs veh, GNAQ / RFU, CDK5R1 / Fold change vs veh, CDK5R1 / RFU, ZRANB3 / Fold change vs veh, ZRANB3 / RFU, CUL4A / Fold change vs veh, CUL4A / RFU, CCNY / Fold change vs veh, CCNY / RFU, UFL1 / Fold change vs veh, UFL1 / RFU, COG3 / Fold change vs veh, COG3 / RFU, DIAPH2 / Fold change vs veh, DIAPH2 / RFU, SKA2 / Fold change vs veh, SKA2 / RFU, AFF3 / Fold change vs veh, AFF3 / RFU, LMF1 / Fold change vs veh, LMF1 / RFU, IPO11 / Fold change vs veh, IPO11 / RFU, DFFB / Fold change vs veh, DFFB / RFU, FOXP1 / Fold change vs veh, FOXP1 / RFU, CARD8 / Fold change vs veh, CARD8 / RFU, STRN3 / Fold change vs veh, STRN3 / RFU, ADK / Fold change vs veh, ADK / RFU, RASSF2 / Fold change vs veh, RASSF2 / RFU, WIPF1 / Fold change vs veh, WIPF1 / RFU, LARP1B / Fold change vs veh, LARP1B / RFU, RASA1 / Fold change vs veh, RASA1 / RFU, RB1 / Fold change vs veh, RB1 / RFU, PPFIA1 / Fold change vs veh, PPFIA1 / RFU, MAT2A / Fold change vs veh, MAT2A / RFU, CCT5 / Fold change vs veh, CCT5 / RFU, WDR92 / Fold change vs veh, WDR92 / RFU, CUX1 / Fold change vs veh, CUX1 / RFU, TTC7A / Fold change vs veh, TTC7A / RFU, TMEM135 / Fold change vs veh, TMEM135 / RFU, DEPTOR / Fold change vs veh, DEPTOR / RFU, CPM / Fold change vs veh, CPM / RFU, DNAJB6 / Fold change vs veh, DNAJB6 / RFU, CACNA2D3 / Fold change vs veh, CACNA2D3 / RFU, DTX4 / Fold change vs veh, DTX4 / RFU, TFCP2 / Fold change vs veh, TFCP2 / RFU, GMCL1 /// GMCL1P1 / Fold change vs veh, GMCL1 /// GMCL1P1 / RFU, AEBP2 / Fold change vs veh, AEBP2 / RFU, SNHG1 /// SNORD22 /// SNORD25 /// SNORD26 /// SNORD27 /// SNORD28 /// SNORD29 /// SNORD31 / Fold change vs veh, SNHG1 /// SNORD22 /// SNORD25 /// SNORD26 /// SNORD27 /// SNORD28 /// SNORD29 /// SNORD31 / Fold change (Aza/veh), C12orf56 (ProbeSet 11735607_a_at) / Fold change (ACY-1035/veh), C12orf56 (ProbeSet 11735607_a_at) / Fold change (Aza/veh), FGFR1OP (ProbeSet 11751329_s_at) / Fold change (ACY-1035/veh), FGFR1OP (ProbeSet 11751329_s_at) / Fold change (Aza/veh), VPS36 (ProbeSet 11739960_a_at) / Fold change (ACY-1035/veh), VPS36 (ProbeSet 11739960_a_at) / RFU SYPL1 (11715823_x_at) / Fold change /veh SYPL1 (11715823_x_at) / RFU IGFBP7 (11715501_s_at) / Fold change /veh IGFBP7 (11715501_s_at) / RFU REEP3 (11722064_at) / Fold change /veh REEP3 (11722064_at) / RFU IGLL1 (11728026_x_at) / Fold change /veh IGLL1 (11728026_x_at): dose or concentration left out as unconfirmed
# Settings: MV-4-11 cells, 48 hours
smiles,measurement,value
Nc1ccc(-c2cccs2)cc1NC(=O)c1ccc2c(c1)cc(C1CC1)n2CCN1CCOCC1 [ACY-1035],RFU TPSAB1 /// TPSB2 (11721975_s_at),19.29 RFU

# Source: article PMC5218480 (PLoS ONE, 2017)
